Entries after “also recorded” stand apart in the source; their conditions may differ.
How the values were obtained:
BALB/c (H-2d) mice [1] = experiment: Serum β-gal-specific IgG ELISA after i.n. or s.c. immunization with β-gal plus adjuvant; format: in vivo; conditions: for β-gal specific IgG titer in sera, i.n. administration: β-gal 30 μg/dose with or without adjuvant 10 μg, end point titers (FIG. 11; FIG. 2)
Protocol: Experimental protocol: six-eight weeks-old female BALB/c (H-2d) mice were purchased from Harlan Winkelmann GmbH (Borchen, Germany) and treated in accordance with local and European Community guidelines. Groups of 5 mice each were immunized on day 1, 14 and 28 with 30 μg of β-gal (Boehringer, Mannheim, Germany), alone or as an admixture with 10 μg c-diGMP or with 10 μpg c-diAMP. For intranasal (i.n.) immunization, 10 μl were applied to each naris, whereas for the s.c. injection β-gal with or without c-diGMP or c-diAMP was resuspended in a volume of 20 μl PBS per animal. Serum samples were collected at day 38 after immunization and stored at −20° C. prior to determination of β-gal-specific antibodies. 96-well Nunc-Immuno MaxiSorp assay plates (Nunc, Roskilde, Denmark) were coated with 100 μl of β-gal (Boehringer, Mannheim, Germany) at 5 μg/ml in 0.05 M carbonate buffer (pH 8.2) per well. Serial two-fold dilutions of sera in PBS with 1% BSA and 0.05% Tween 20 were added (100 μl/well), and plates incubated for 16h at 37° C. After washing, biotinylated γ-chain-specific goat anti-mouse IgG (Sigma Chemie, Deisenhofen, Germany) was added, and plates were incubated for an additional 1 h at 37° C. After four washes, 100 μl of peroxidase-conjugated streptavidin (Pharmingen) was added to cells and plates incubated at 37° C. for 30 min. After four washes, reactions were developed with ABTS in 0.1 M citrate-phosphate buffer (pH 4.35) containing 0.01% H2O2. Results for c-diGMP are shown as OD405 values after serial two-fold dilutions (FIG. 2). […] The effect of c-diGMP as an adjuvant was independent of the route of administration.
In contrast, in the presence of c-diAMP, i.n. administration of β-gal induced very high titers of specific IgG in all mice with titers higher than 500,000 (FIG. 11).
In view of the above in vitro results, additional in vivo studies have been conducted. […] Thus, the capacity of c-diGMP and c-diAMP, respectively, to stimulate efficient humoral immune responses was evaluated, by determining the serum titers of β-gal-specific antibodies in vaccinated mice.

BALB/c (H-2d) mice [2] = experiment: β-gal-specific IgA in lung and vaginal lavages of immunized mice; format: in vivo; conditions: for β-gal-specific IgA in lung lavages: i.n. immunization, day 38, versus β-gal alone (FIG. 4, FIG. 5)
Protocol: Experimental protocol: at day 38, mice were sacrificed and the final sampling was performed. Vaginal and lung lavages were obtained by flushing the organs with 1 ml of PBS supplemented with 50 mM EDTA, 0.1% BSA, and 10 mM PMSF. Lavages were then centrifuged to remove debris (10 min at 3000×g), and supernatant fluids were stored at −20° C. To determine the concentration of total IgA present in the lung and vaginal lavages, serial dilutions of the corresponding samples were incubated in microtiter plates that were previously coated with goat anti-mouse IgA (Sigma Chemie), as capture antibodies (100 μl/well). Serial dilutions of purified mouse IgA (Sigma Chemie) were used to generate a standard curve.
To investigate the capacity of c-diGMP and c-diAMP, respectively, to stimulate mucosal responses against antigens co-administered by the i.n. and s.c. route, the production of β-gal-specific IgA in lung was analyzed (FIG. 5 for c-diAMP and FIG. 4 for c-diGMP) from immunized animals, immunized according to the protocol described in Example 2.

[3] = test system: re-stimulated spleen cells; experiment: Cytokines in supernatants of in vitro re-stimulated spleen cells by cytometric bead array; format: in vivo, mice; conditions: for IL-6 secretion of re-stimulated spleen cells: versus β-Gal without adjuvant (FIGS. 8 and 9); for IFNγ secretion of re-stimulated spleen cells: versus β-Gal without adjuvant, c-diGMP data from i.n. immunized mice (FIG. 7, FIG. 9)
Protocol: Experimental protocol: Spleens from mucosal (i.n.) or parenteral (s.c.) vaccinated mice were removed and pooled for analysis of cellular immune responses. The protocol for vaccination was identical to the protocol described in Example 2. Cells were grown in RPMI 1640 supplemented with 10% fetal calf serum, 100 U/ml of penicillin, 50 μg/ml of streptomycin, 5×10^−5 M 2-mercaptoethanol and 1 mM L-glutamine (GIBCO BRL, Karlsruhe, Germany) and maintained at 37° C. in a humidified 5% CO2 atmosphere. Spleen cell suspensions were adjusted to 5×10^6 cells/ml in complete medium, cells were seeded with 100 μl per well in a flat-bottomed 96-well microtiter plate (Nunc) and plates were incubated for 4 days in the presence of different concentrations of soluble β-gal.
To characterize the type of Th response stimulated following immunization, the content of IFNγ, IL-6, IL-10, IL-12 (for c-diAMP only), MCP-1, and TNFα was measured in supernatants from in vitro re-stimulated spleen cells (FIG. 7 and 8 for c-diGMP and FIG. 9 for c-diAMP) by the Cytometric Bead Array. Culture supernatants from proliferating cells were collected on days 2 and 4, and stored at −70° C. Determination of IFNγ, TNFα, IL-6, IL-10, IL-12, and MCP-1 was performed by cytometric bead array (CBA) analysis using the commercial kit from BectonDickinson, according to the manufacturer's instructions or with commercially available ELISA systems. For CBA analysis, a standard curve was generated for each cytokine by using the corresponding recombinant murine cytokines (Pharmingen). Probes were incubated at room temperature for additional 2h. The probes were analyzed subsequently by flow cytometry as described in the protocol of BD.

**Q.** Which results are given for `Nc1nc2c(ncn2[C@@H]2O[C@@H]3COP(=O)(O)O[C@H]4[C@@H](O)[C@H](n5cnc6c(=O)[nH]c(N)nc65)O[C@@H]4COP(=O)(O)O[C@H]3[C@H]2O)c(=O)[nH]1` [c-diGMP, cyclic bis(3′-5′)diguanylic acid]?
**A.** β-gal specific IgG titer in sera (BALB/c (H-2d) mice [1]; 30 μg β-gal + 10 μg adjuvant, day 1, 14, 28, serum day 38, independent of route (i.n., s.c.), FIG. 2, FIG. 3): remarkably increased; β-gal specific IgG titer in sera, i.n. administration (BALB/c (H-2d) mice [1]): increased expression; β-gal-specific IgA in lung lavages (BALB/c (H-2d) mice [2]): higher; β-gal-specific IgA in lung lavages (BALB/c (H-2d) mice [2]; listed as c-dGMP): significant increase; β-gal specific sIgA expression in vaginal lavage, s.c. route (BALB/c (H-2d) mice [2]; s.c. route (not shown)): does not lead to an enhanced expression; IL-6 secretion of re-stimulated spleen cells [3]: same results; IFNγ secretion of re-stimulated spleen cells [3]: strong expression; also recorded: enhanced secretion; Th1 like cytokines in antigen restimulated spleen cells ([3]; β-gal/c-diGMP versus β-gal alone (FIG. 8B)): high expression

**Q.** What does the source list for `Nc1ncnc2c1ncn2[C@@H]1O[C@@H]2COP(=O)(O)O[C@H]3[C@@H](O)[C@H](n4cnc5c(N)ncnc54)O[C@@H]3COP(=O)(O)O[C@H]2[C@H]1O` [c-diAMP, cyclic bis(3′-5′)diadenylic acid]?
**A.** β-gal specific IgG titer in sera, i.n. administration (BALB/c (H-2d) mice [1]): higher than 500,000; β-gal specific sIgA expression in vaginal lavage (BALB/c (H-2d) mice [2]; c-diAMP as adjuvant, i.n. (FIG. 5)): detectable; β-gal-specific IgA in lung lavages (BALB/c (H-2d) mice [2]): significant increase; type of Th response induced ([3]; mice immunized with β-gal plus adjuvant): balanced Th1/Th2 response; TNFα secretion of re-stimulated spleen cells ([3]; versus β-Gal without adjuvant (FIG. 9)): enhanced secretion; IL-6 secretion of re-stimulated spleen cells [3]: same results; IFNγ secretion of re-stimulated spleen cells [3]: enhanced secretion
